According to patent US20160235807A1, “AGONISTS OF GUANYLATE CYCLASE USEFUL FOR DOWNREGULATION OF PRO-INFLAMMATORY CYTOKINES” (SYNERGY PHARMACEUTICALS, INC., priority 2013, published 2016):
“Also recorded” adds a separate entry of the source. Bridge positions count the residues as written; N and C are the ends. Square brackets hold non-standard residues; d marks the D form. Peptide text beside a SMILES is read from it.

How the values were obtained:
[1] = tested on: DSS-induced colitis; test: DSS-induced colitis in BDF-1 mice; type: in vivo, mouse
Protocol: To evaluate the efficacy of plecanatide in DSS induced colitis model, 48 BDF-1 mice were divided into 8 treatment groups (6 mice/group). One group was not exposed to DSS (untreated control) and groups 2-8 were treated with 5% DSS in the drinking water on day 0. Plecanatide or SP-333 solutions formulated in 0.1M phosphate buffer (pH 7) was administered by oral gavage, once a day at 0.005, 0.05, 0.5, 2.5 and 5 mg/kg, from study day −1 (i.e. prior to initiation of DSS treatment) through day 6 for SP-333 or day 7 for plecanatide. DSS treatment was initiated on day 0 for groups 2-8 until the end of the study. Sulfasalazine (80 mg/kg) or 5-ASA (100 mg/kg) was used as positive control and was administered daily. Mice were sacrificed on day 7. The large intestine was removed and weighed. Distal section of the large intestine was collected and fixed as described above.
Disease activity index (DAI) was calculated by scoring in-life parameters starting from day −1 until the end of the study. Once daily, all mice were weighed and assessed for stool consistency, and the presence of overt blood in the stool or around the anus essentially similar to that reported earlier. Colitis severity was assessed by histopathological analyses of H&E stained tissue sections (Hegazi et al., 2005; Dave et al., 2009) employing the following criteria: (score 0) normal appearing crypts; (score 1) abnormal crypt pathology without ulceration; (score 2) depleted crypts with ulceration; (score 3) 20-50% depleted crypts and increased ulceration; (score 4) >50% depleted crypts with substantial ulceration and (score 5) totally ulcerated/inflamed colon with no crypts remaining. All slides were scored in a blinded manner. Colitis severity in TCRα−/− model was scored as previously described^25. All slides were scored in a blinded manner. Disease activity index (DAI) was calculated by assessing body weight, stool consistency, and the presence of overt blood in stools or around the anus, essentially similar to that reported earlier (Hamamoto et al., 1999).

[2] = tested on: Ki-67 labeling of crypt epithelial cells; test: Ki-67 labeling in large bowel cross sections, DSS-induced colitis in BDF-1 mice; type: in vivo, mouse
Excerpt: A total of 40 samples were chosen for analysis of MPO activity and Ki-67 labeling from the treatment groups that received SP-333, its vehicle control (0.1M phosphate buffer, pH 7) and the reference compound (5-ASA). A random number generator (www.random.org) was employed to select samples from these groups (7 from each of the SP-333-recipient groups and 6 from each of the vehicle and 5-ASA groups).
Employing standard procedures, two non-serial sections from each animal, were de-waxed in xylene and rehydrated in graded alcohols to PBS (pH 7.4). Endogenous peroxidase was blocked by incubation in 0.3% […] for 30 min. Antigen retrieval was performed by placing the slides in 1 L of citrate buffer (pH 6) and microwaving at high power for 20 minutes. After cooling for 15 minutes, sections were incubated with 10% normal goat serum for 30 minutes to block non-specific binding Primary antibody (mouse monoclonal IgG, clone MIB-1, Dako) at 1/50 dilution was added and incubated for 1 hour at room temperature. Sections were washed and incubated with biotinylated secondary IgG antibody (1/200 dilution; Vector Labs Inc.), for 45 minutes at room temperature. Subsequently, slides were washed and incubated with ABC Elite reagents (Vector Labs Inc.), for 30 minutes at room temperature. […] Sections were counterstained with thionine, dehydrated and mounted.

[3] = tested on: T84 cells; test: MicroRNA microarray analysis of SP-333 treated T84 cells; type: cell-based, human; conditions: T84, 1 μM, 5 h
Protocol: T84 cells were grown to confluence in 100 mm tissue culture dishes. Cells were treated with pre-determined concentration of SP-333 (1 μM) in the presence of phosphodiesterase inhibitor, zaprinast (500 μM; Sigma Aldrich) for 5 hours. Following treatment, cells were trypsinized and the sample was divided into 3 aliquots. One aliquot was used to determine total cGMP. Another was used for extracting total RNA. The last aliquot was used to extract and purify miRNAs using Norgen's Kit (Norgen BioteK). Briefly, cells were lysed using lysis buffer, passed through a column to remove large RNA, followed by capturing miRNA using microRNA enrichment column. Purified samples were stored at −20° C. MicroRNAs were profiled on a LC Sciences microarray chip and TaqMan Open Array Human miRNA panel.

[4] = tested on: T84 cells; test: Quantitative RT-PCR for transcripts in T84 cells; type: cell-based, human
[5] = SP-333 0.005 to 5 mg/kg oral daily, vs DSS alone or DSS plus vehicle
[6] = Table 8: downregulated under NF-κB
[7] = Table 8: upregulated under NF-κB

Work on `CC(C)C[C@@H]1NC(=O)[C@H](CCC(=O)O)NC(=O)[C@@H](NC(=O)[C@H](CCC(=O)O)NC(=O)[C@H](CC(=O)O)NC(=O)[C@H](N)CC(N)=O)CSSC[C@@H]2NC(=O)[C@H](C)NC(=O)[C@H](C(C)C)NC(=O)[C@H](CC(N)=O)NC(=O)[C@H](C(C)C)NC(=O)[C@H](CSSC[C@@H](C(=O)N[C@H](CC(C)C)C(=O)O)NC(=O)CNC(=O)[C@H]([C@@H](C)O)NC2=O)NC1=O` [SP-333, dAsn^1-Asp^2-Glu^3-Cys^4-Glu^5-Leu^6-Cys^7-Val^8-Asn^9-Val^10-Ala^11-Cys^12-Thr^13-Gly^14-Cys^15-dLeu^16] (H-[dN]DECELCVNVACTGC[dL]-OH; disulfide 4-12, 7-15; N-terminus and C-terminus assumed) yielded a histopathology score ([1]; DSS+SP-333 0.005 mg/kg, representative image FIG. 10C (DSS alone 4)) of 1, a histopathology score ([1]; DSS+SP-333 0.05 mg/kg, representative image FIG. 10D) of 2 and a histopathology score ([1]; DSS+SP-333 0.5 mg/kg, representative image FIG. 10E) of 2. For the same compound, the “amelioration of colitis compared with 5-ASA” value ([1]; SP-333 0.005 mg/kg oral) was “as effective as 5-ASA (100 mg/kg)”, the DAI ([1]; SP-333 0.05 mg/kg oral, vs DSS vehicle control, p=0.041) was “significant reduction” and the “mean DAI scores” value [1, 5] was “lower”. For the same compound, the “mean scores of colitis severity” value [1, 5] was “lower”, the “histological evaluation of colon tissues (crypts)” value ([1]; SP-333 treatment groups) was “minimal loss of crypts with very low distortions in crypt morphology” and the “crypts with normal Ki-67 labeling, comparison among groups” value ([2]; SP-333 0.005 mg/kg) was “greatest percentage of crypts with normal Ki-67 labeling”. The “proportion of Ki-67 positive crypts” value ([2]; SP-333 0.005 mg/kg/day (DSS control 35.3±4.86%)) was 60.4±6.96%, the “proportion of Ki-67 positive crypts” value ([2]; SP-333 0.05 mg/kg/day) was 58.7±7.3% and the “proportion of crypts with Ki-67 labeling vs DSS treated control” value ([2]; SP-333 treated sections) was “larger proportions of crypts with Ki-67 labeling”. The miR-133b level ([3]; Table 8: downregulated in CRC) was “increase”, the miR-139-5p level ([3]; Table 8: downregulated in CRC) was “increase” and the miR-133a level ([3]; Table 8: downregulated in CRC, p<0.01) was “increase”. The miR-218 level [3, 6] was “increase”, the miR-223 level [3, 6] was “increase” and the mir-29b level [3, 6] was “increase”. The miR-16 level ([3]; Table 8: downregulated under NF-κB, p<0.01) was “upregulated; also recorded: increase”, the miR-15a level ([3]; Table 8: downregulated under NF-κB, p<0.05) was “upregulated; also recorded: increase” and the miR-92 level ([3]; Table 8: upregulated in CRC) was “decrease”. For the same compound, the miR-26b level ([3]; Table 8: upregulated in IBD) was “decrease”, the miR-28-5p level ([3]; Table 8: upregulated in IBD) was “decrease” and the miR-98 level ([3]; Table 8: upregulated in IBD) was “decrease”. The miR-99a level ([3]; Table 8: upregulated in IBD) was “decrease”, the miR-203 level ([3]; Table 8: upregulated in IBD) was “decrease” and the miR-362-3p level ([3]; Table 8: upregulated in IBD) was “decrease”. The miR-532-3p level ([3]; Table 8: upregulated in IBD) was “decrease”, the miR-10a level [3, 7] was “decrease” and the miR-27b level [3, 7] was “decrease”. For the same compound, the miR-30b level [3, 7] was “decrease”, the miR-301 level [3, 7] was “decrease” and the miR-199-3p level ([3]; Table 8: upregulated under NF-κB and cMyc) was “decrease”. The miR-224 level ([3]; Table 8: upregulated under cMyc) was “decrease”, the miR-125b level ([3]; p<0.001) was “upregulated” and the let-7i level ([3]; p<0.005) was “upregulated”. The miR-494 level ([3]; p<0.005) was “reduced”, the “miR-41-3p level (negative regulator of c-Src)” value ([3]; p<0.01) was “significantly increased” and the miR-200c level ([3]; p<0.01) was “reduced”. The “family of miR-29 level” value ([3]; p<0.05) was “upregulated”, the miR-30c level ([3]; p<0.05) was “increased” and the miR-92a level ([3]; p<0.05) was “reduced”. The “transcripts of cell division cycle 25a (putative c-Myc target gene)” value [4] was “reduced”, the “transcripts of cyclin D1 (putative c-Myc target gene)” value [4] was “reduced” and the “transcripts of p53 (putative c-Myc target gene)” value [4] was “reduced”. The “Expression of Protein Kinase G I and II Transcripts” value ([4]; FIG. 15) was “enhanced”, the “decrease in Cyclin D1 expression” value ([4]; FIG. 17) was 58% and the “decrease in Survivin expression” value ([4]; FIG. 17) was 50%. The “decrease in c-Myc expression” value ([4]; FIG. 17) was 92%, the “expression of β-Catenin” value ([4]; FIG. 17) was “no effect” and the “decrease in c-Src expression” value ([4]; compared to untreated cells, FIG. 16) was 52%.
